Where “and” joins values, the source holds several entries; their conditions need not be identical. Equal values may be shown once. Inconclusive results and toxic doses are left out. Rule as the data show it: active = T/C of 150% or more; inactive = T/C below 125%.
System: L1210 leukemia ip in BDF1 mice, survival T/C
Test: NCI In Vivo Anticancer Drug Screen. Data for tumor model L1210 Leukemia (intraperitoneal) in B6D2F1 (BDF1) mice
Conditions: endpoint: mean survival time, higher = longer survival
Outline: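 Transplanted-tumor mice were given test agent; controls received vehicle only. Survival readings from the two groups were divided (treated over control).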

[1] = dose: 100.0 mg/kg/injection, schedule: Q04DX003 (ip), vehicle: Klucel (hydroxypropylcellulose) (HPC)
[2] = dose: 200.0 mg/kg/injection, schedule: Q04DX003 (ip), vehicle: Klucel (hydroxypropylcellulose) (HPC)
[3] = dose: 400.0 mg/kg/injection, schedule: Q04DX003 (ip), vehicle: Klucel (hydroxypropylcellulose) (HPC)
[4] = dose: 100.0 mg/kg/injection, schedule: Q04DX003 (ip), vehicle: saline
[5] = dose: 200.0 mg/kg/injection, schedule: Q04DX003 (ip), vehicle: saline
[6] = dose: 400.0 mg/kg/injection, schedule: Q04DX003 (ip), vehicle: saline
[7] = dose: 100.0 mg/kg/injection, schedule: Q01DX009 (ip), vehicle: saline with Tween-80
[8] = dose: 100.0 mg/kg/injection, schedule: Q04DX003 (ip), vehicle: saline with Tween-80
[9] = dose: 200.0 mg/kg/injection, schedule: Q01DX009 (ip), vehicle: saline with Tween-80
[10] = dose: 200.0 mg/kg/injection, schedule: Q04DX003 (ip), vehicle: saline with Tween-80
[11] = dose: 400.0 mg/kg/injection, schedule: Q01DX009 (ip), vehicle: saline with Tween-80
[12] = dose: 400.0 mg/kg/injection, schedule: Q04DX003 (ip), vehicle: saline with Tween-80
[13] = dose: 100.0 mg/kg/injection, schedule: Q01DX001 (ip), vehicle: saline with Tween-80

Measured: T/C

C/C(=N\Nc1ccc([N+](=O)[O-])cc1[N+](=O)[O-])C(F)(F)F
inactive: dose: 100.0 mg/kg/injection, schedule: Q01DX009 (ip), vehicle: saline sonified 95 % of control | [1] 94 % of control | dose: 200.0 mg/kg/injection, schedule: Q01DX009 (ip), vehicle: saline sonified 98 % of control | [2] 104 % of control | dose: 400.0 mg/kg/injection, schedule: Q01DX009 (ip), vehicle: saline sonified 95 % of control | [3] 104 % of control

NCCS(=O)c1ccccc1 (stereo not drawn)
inactive: [4] 96 % of control | [5] 96 % of control | [6] 113 % of control

NNS(=O)(=O)c1ccc(OCC(=O)O)cc1
inactive: dose: 100.0 mg/kg/injection, schedule: Q01DX009 (ip), vehicle: Klucel (hydroxypropylcellulose) (HPC) 98 % of control | [1] 102 % of control | dose: 200.0 mg/kg/injection, schedule: Q01DX009 (ip), vehicle: Klucel (hydroxypropylcellulose) (HPC) 94 % of control | [2] 98 % of control | dose: 400.0 mg/kg/injection, schedule: Q01DX009 (ip), vehicle: Klucel (hydroxypropylcellulose) (HPC) 94 % of control | [3] 98 % of control

CCCc1[nH]nc(C(=O)OC)c1N=NN(C)C
inactive: dose: 173.0 mg/kg/injection, schedule: Q01DX001 (ip), vehicle: other 110 % of control | dose: 266.0 mg/kg/injection, schedule: Q01DX001 (ip), vehicle: other 112 % of control | dose: 400.0 mg/kg/injection, schedule: Q01DX001 (ip), vehicle: other 115 % of control | dose: 600.0 mg/kg/injection, schedule: Q01DX001 (ip), vehicle: other 123 % of control

Nc1c(Cl)ncnc1NCCCCCO
inactive: [1] 100 % of control | [2] 94 % of control | [3] 107 % of control

CCC(Cl)COP(=O)(OCC(Cl)CC)OC(CC)P(=O)(OCC(Cl)CC)OCC(Cl)CC (stereo not drawn)
inactive: [1] 93 % of control | [2] 93 % of control | [3] 95 % of control

CCCCCCCCCCCCn1ncc2ccc([N+](=O)[O-])cc21
inactive: dose: 400.0 mg/kg/injection, schedule: Q01DX001 (ip), vehicle: saline 96 % of control

Cc1cc(C)c(NS(=O)(=O)c2ccccc2)c(C)c1Br
inactive: dose: 75.0 mg/kg/injection, schedule: Q04DX003 (ip), vehicle: Klucel (hydroxypropylcellulose) (HPC) 95 % of control | dose: 150.0 mg/kg/injection, schedule: Q04DX003 (ip), vehicle: Klucel (hydroxypropylcellulose) (HPC) 94 % of control | dose: 300.0 mg/kg/injection, schedule: Q04DX003 (ip), vehicle: Klucel (hydroxypropylcellulose) (HPC) 94 % of control

O=C(CC(O)(C(F)(F)Cl)C(F)(F)Cl)c1cccs1
inactive: dose: 50.0 mg/kg/injection, schedule: Q04DX003 (ip), vehicle: saline with Tween-80 101 % of control | [7] 108 % of control | [8] 101 % of control | [9] 114 % of control | [10] 98 % of control | [11] 98 % of control | [12] 98 % of control

CN(C)c1nc(N)c(N)c(N)n1
inactive: dose: 25.0 mg/kg/injection, schedule: Q01DX001 (ip), vehicle: saline with Tween-80 101 % of control | dose: 50.0 mg/kg/injection, schedule: Q01DX001 (ip), vehicle: saline with Tween-80 107 % of control | [13] 96 % of control and 97 % of control

O=C1CCCN(c2ccccc2)c2ccccc21
inactive: dose: 100.0 mg/kg/injection, schedule: Q01DX009 (ip), vehicle: other 100 % of control | dose: 100.0 mg/kg/injection, schedule: Q04DX003 (ip), vehicle: other 98 % of control | dose: 200.0 mg/kg/injection, schedule: Q01DX009 (ip), vehicle: other 98 % of control | dose: 200.0 mg/kg/injection, schedule: Q04DX003 (ip), vehicle: other 109 % of control | dose: 400.0 mg/kg/injection, schedule: Q01DX009 (ip), vehicle: other 96 % of control | dose: 400.0 mg/kg/injection, schedule: Q04DX003 (ip), vehicle: other 104 % of control

O=C(/C=C/c1ccccc1)c1ccccc1O
inactive: [7] 89 % of control | [8] 100 % of control | [9] 86 % of control | [10] 98 % of control | [11] 94 % of control | [12] 98 % of control

O=C(Nc1ccc(C(=O)Nc2ccc(C3=NCCN3)cc2)cc1)Nc1ccc(C(=O)Nc2ccc(C3=NCCN3)cc2)cc1
inactive: dose: 15.0 mg/kg/injection, schedule: Q01DX Z (ip), vehicle: methylcellulose (MC) 102 % of control | dose: 30.0 mg/kg/injection, schedule: Q01DX Z (ip), vehicle: methylcellulose (MC) 103 % of control | dose: 60.0 mg/kg/injection, schedule: Q01DX Z (ip), vehicle: methylcellulose (MC) 101 % of control | dose: 62.0 mg/kg/injection, schedule: Q01DX Z (ip), vehicle: carboxymethylcellulose (CMC) 91 % of control | dose: 120.0 mg/kg/injection, schedule: Q01DX Z (ip), vehicle: methylcellulose (MC) 103 % of control | dose: 125.0 mg/kg/injection, schedule: Q01DX Z (ip), vehicle: carboxymethylcellulose (CMC) 91 % of control | dose: 250.0 mg/kg/injection, schedule: Q01DX Z (ip), vehicle: carboxymethylcellulose (CMC) 96 % of control

CC1(C)C/C(=C\c2ccccc2)C(=O)c2ccccc21
inactive: [8] 107 % of control | [10] 96 % of control | [12] 96 % of control

CC1=C(C)C(=O)C(SC2CC(=O)OC2=O)=C(C)C1=O (stereo not drawn)
inactive: [13] 88 % of control

COC1OCC(OCc2ccccc2)C(OCc2ccccc2)C1OCc1ccccc1 (stereo not drawn)
inactive: dose: 100.0 mg/kg/injection, schedule: Q01DX001 (ip), vehicle: carboxymethylcellulose (CMC) 118 % of control | dose: 200.0 mg/kg/injection, schedule: Q01DX001 (ip), vehicle: carboxymethylcellulose (CMC) 98 % of control | dose: 400.0 mg/kg/injection, schedule: Q01DX001 (ip), vehicle: carboxymethylcellulose (CMC) 96 % of control

C1CCC(N(CCN(C2CCCCC2)C2CCCCC2)C2CCCCC2)CC1
inactive: dose: 25.0 mg/kg/injection, schedule: Q04DX013 (ip), vehicle: carboxymethylcellulose (CMC) 100 % of control | dose: 50.0 mg/kg/injection, schedule: Q04DX013 (ip), vehicle: carboxymethylcellulose (CMC) 94 % of control | dose: 100.0 mg/kg/injection, schedule: Q04DX013 (ip), vehicle: carboxymethylcellulose (CMC) 96 % of control

BrC1(Br)C2CC3C(CC21)C1CC2C(CC31)C2(Br)Br (stereo not drawn)
inactive: [7] 97 % of control | [8] 94 % of control | [9] 96 % of control | [10] 95 % of control | [11] 105 % of control | [12] 92 % of control

O=C(Cc1ccccc1)Cc1ccccc1
inactive: dose: 25.0 mg/kg/injection, schedule: Q01DX009 (ip), vehicle: water 104 % of control | dose: 50.0 mg/kg/injection, schedule: Q01DX009 (ip), vehicle: water 115 % of control | dose: 100.0 mg/kg/injection, schedule: Q01DX009 (ip), vehicle: water 104 % of control | dose: 200.0 mg/kg/injection, schedule: Q01DX009 (ip), vehicle: water 94 % of control | dose: 400.0 mg/kg/injection, schedule: Q01DX009 (ip), vehicle: water 94 % of control

NC(N)=N/C(N)=N/Nc1ccc([N+](=O)[O-])cc1[N+](=O)[O-]
inactive: dose: 12.5 mg/kg/injection, schedule: Q04DX002 (ip), vehicle: saline with Tween-80 98 % of control | dose: 25.0 mg/kg/injection, schedule: Q04DX002 (ip), vehicle: saline with Tween-80 93 % of control | dose: 100.0 mg/kg/injection, schedule: Q04DX002 (ip), vehicle: saline with Tween-80 88 % of control

O=C(O)C1C=CCC(C(=O)O)C1 (stereo not drawn)
inactive: [4] 98 % of control | [5] 108 % of control | [6] 95 % of control

CN1CCC23c4c5ccc(O)c4OC2C(=O)CCC3C1C5 (stereo not drawn)
inactive: dose: 75.0 mg/kg/injection, schedule: Q01DX001 (ip), vehicle: saline 95 % of control

O=C(NCCO)C(=O)NCCO
inactive: dose: 100.0 mg/kg/injection, schedule: Q04DX002 (ip), vehicle: saline 115 % of control | dose: 200.0 mg/kg/injection, schedule: Q04DX002 (ip), vehicle: saline 110 % of control | dose: 400.0 mg/kg/injection, schedule: Q04DX002 (ip), vehicle: saline 96 % of control

O=C(Nc1cccc(C2=NCCN2)c1)c1cc(Cl)cc(C(=O)Nc2cccc(C3=NCCN3)c2)c1
inactive: dose: 7.0 mg/kg/injection, schedule: Q01DX Z (ip), vehicle: methylcellulose (MC) 92 % of control | dose: 11.0 mg/kg/injection, schedule: Q01DX Z (ip), vehicle: methylcellulose (MC) 100 % of control | dose: 16.0 mg/kg/injection, schedule: Q01DX Z (ip), vehicle: methylcellulose (MC) 87 % of control | dose: 25.0 mg/kg/injection, schedule: Q01DX Z (ip), vehicle: methylcellulose (MC) 97 % of control

— PubChem BioAssay AID248 (DTP/NCI, 2004)
